# Source: patent publication US20220339144A1, “PYRIDINYL INDOLE COMPOUNDS AND METHODS OF USE THEREOF” (Chinook Therapeutics Canada, Inc., priority 2021, published 2022)
# Target: T1, AMPKα1β1γ1 (Homo sapiens, UniProt Q13131+Q9Y478)
# T1 construct: purchased Carna Biosciences 02-113
# Test: AMPKα1β1γ1 biochemical assay (LabChip EZ Reader mobility shift)
# Settings: EC50 of Table 1; activation, normalized to DMSO vehicle control; read-out: Human AMPK AMPKα1β1γ1 EC50
# Protocol: Compounds disclosed herein were evaluated for their ability to activate AMPKα1β1γ1 by measuring phosphorylation of a commercially available fluorescent AMPK substrate using the LabChip® EZ Reader microfluidic system that is based on a mobility shift principle in which unphosphorylated fluorescent substrates may be separated and distinguished from phosphorylated fluorescent substrates due to the difference in negative charge. Briefly, compounds were serial diluted 3-fold in 100% DMSO for an 11-point dose-response curve. A 20 nL aliquot of diluted compound was transferred into a 384-well plate using a liquid handler (Labcyte Inc., Echo 550). A pre-prepared solution (10 mM MgCl2, 0.01% Brij-35, 2 mM DTT, 0.05% BSA, 1 mM EGTA, and 50 mM HEPES pH 7.5) was combined with 0.83 nM AMPKα1β1γ1 (Carna Biosciences, 02-113). The enzyme solution (15 μL) was aliquoted into each well and the plate was incubated at 24° C. for 30 min. A second stock solution (10 mM MgCl2, 0.01% Brij-35, 2 mM DTT, 0.05% BSA, 1 mM EGTA, 800 μM ATP, and 50 mM HEPES pH 7.5) was combined with 6 μM fluorescent peptide substrate for AMPKal (Perkin Elmer, 760351). The kinase reaction was initiated by adding 5 μL of the second solution containing substrate and ATP to each well. The plate was incubated at 24° C. for 90 minutes and 75 μL of 0.5 M EDTA was added to terminate the reaction. The plates were analyzed using a LabChip® EZ Reader (Perkin Elmer, 122919) and the effective concentration to achieve 50% of the maximal activity (EC50) was calculated after normalizing to the DMSO vehicle control.
# T1 sequence (Q13131 whole entry): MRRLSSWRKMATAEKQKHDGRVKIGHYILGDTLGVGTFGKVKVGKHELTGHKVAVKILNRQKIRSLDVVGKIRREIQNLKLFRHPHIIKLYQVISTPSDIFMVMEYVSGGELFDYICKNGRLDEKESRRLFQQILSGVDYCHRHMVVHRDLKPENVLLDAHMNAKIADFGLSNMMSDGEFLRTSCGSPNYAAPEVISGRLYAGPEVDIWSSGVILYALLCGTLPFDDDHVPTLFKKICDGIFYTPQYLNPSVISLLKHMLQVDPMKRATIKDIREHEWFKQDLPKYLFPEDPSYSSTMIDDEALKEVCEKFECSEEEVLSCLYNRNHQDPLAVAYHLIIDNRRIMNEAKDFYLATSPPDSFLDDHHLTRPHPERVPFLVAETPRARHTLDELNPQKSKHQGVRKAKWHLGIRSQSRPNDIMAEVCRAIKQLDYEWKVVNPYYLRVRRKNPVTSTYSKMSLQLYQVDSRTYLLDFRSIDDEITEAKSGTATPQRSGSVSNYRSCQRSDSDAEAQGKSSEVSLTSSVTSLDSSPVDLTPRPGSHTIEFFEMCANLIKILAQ
# T1 sequence (Q9Y478 whole entry): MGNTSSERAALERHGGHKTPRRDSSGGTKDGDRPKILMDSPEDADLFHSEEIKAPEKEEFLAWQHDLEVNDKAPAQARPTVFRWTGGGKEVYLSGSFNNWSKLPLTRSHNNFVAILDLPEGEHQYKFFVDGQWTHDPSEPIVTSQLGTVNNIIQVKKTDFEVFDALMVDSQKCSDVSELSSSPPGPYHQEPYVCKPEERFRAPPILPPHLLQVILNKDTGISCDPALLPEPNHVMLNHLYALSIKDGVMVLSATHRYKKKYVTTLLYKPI
# T1 sequence (P54619 whole entry partner): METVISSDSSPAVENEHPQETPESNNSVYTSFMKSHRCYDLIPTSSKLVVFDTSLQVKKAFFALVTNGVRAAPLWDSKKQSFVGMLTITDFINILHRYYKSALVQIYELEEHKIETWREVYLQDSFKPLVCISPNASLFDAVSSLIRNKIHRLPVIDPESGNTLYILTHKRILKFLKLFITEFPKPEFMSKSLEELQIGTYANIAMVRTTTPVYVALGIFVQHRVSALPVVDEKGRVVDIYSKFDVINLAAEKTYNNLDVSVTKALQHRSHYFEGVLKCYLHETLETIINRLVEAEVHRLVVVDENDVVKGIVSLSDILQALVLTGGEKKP
row,SMILES,EC50 [nM]
1,"COc1nc(N2CC3CC2CO3)ccc1-c1cc2c(C(=O)O)c[nH]c2cc1Cl (racemic) [Example 2, rac-5-(6-(2-oxa-5-azabicyclo[2.2.1]heptan-5-yl)-2-methoxypyridin-3-yl)-6-chloro-1H-indole-3-carboxylic acid]",100 to 250
2,"COc1nc(N2CC3COC(C3)C2)ccc1-c1cc2c(C(=O)O)c[nH]c2cc1Cl (racemic) [Example 20, racemic-5-(6-(6-oxa-3-azabicyclo[3.2.1]octan-3-yl)-2-methoxypyridin-3-yl)-6-chloro-1H-indole-3-carboxylic acid]",50 to 100
3,"COc1nc(N2CC3CCC(C2)O3)ccc1-c1cc2c(C(=O)O)c[nH]c2cc1Cl (racemic) [Example 29, racemic-5-(6-(8-oxa-3-azabicyclo[3.2.1]octan-3-yl)-2-methoxypyridin-3-yl)-6-chloro-1H-indole-3-carboxylic acid]",100 to 250
4,"COc1nc(N2CC3CCC2CO3)ccc1-c1cc2c(C(=O)O)c[nH]c2cc1Cl (racemic) [Example 30, racemic-5-(6-(2-oxa-5-azabicyclo[2.2.2]octan-5-yl)-2-methoxypyridin-3-yl)-6-chloro-1H-indole-3-carboxylic acid]",100 to 250
5,"COc1nc(N2CCC3(CCO3)CC2)ccc1-c1cc2c(C(=O)O)c[nH]c2cc1Cl (racemic) [Example 31, racemic-6-chloro-5-(2-methoxy-6-(1-oxa-7-azaspiro [3.5]nonan-7-yl)pyridin-3-yl)-1H-indole-3-carboxylic acid]",50 to 100
6,"COc1nc(N2C[C@@H]3COC[C@H]3C2)ccc1-c1cc2c(C(=O)O)c[nH]c2cc1Cl (racemic) [Example 32, racemic-6-chloro-5-(2-methoxy-6-((trans)tetrahydro-1H-furo[3,4-c]pyrrol-5(3H)-yl)pyridin-3-yl)-1H-indole-3-carboxylic acid]",≤ 50
7,"COc1nc(N2CCC3(CCOC3)C2)ccc1-c1cc2c(C(=O)O)c[nH]c2cc1Cl (racemic) [Example 37, racemic-6-chloro-5-(2-methoxy-6-(2-oxa-7-azaspiro [4.4]nonan-7-yl)pyridin-3-yl)-1H-indole-3-carboxylic acid]",100 to 250
8,"COc1nc(N2CC3(CC(NC(=O)OC(C)(C)C)C3)C2)ccc1-c1cc2c(C(=O)O)c[nH]c2cc1Cl [Example 7, 5-(6-(6-((tert-butoxycarbonyl)amino)-2-azaspiro[3.3]heptan-2-yl)-2-methoxypyridin-3-yl)-6-chloro-1H-indole-3-carboxylic acid]",≤ 50
9,"COc1nc(N2CC3(CNC3)C2)ccc1-c1cc2c(C(=O)O)c[nH]c2cc1Cl [Example 11, 6-chloro-5-(2-methoxy-6-(2,6-diazaspiro[3.3]heptan-2-yl)pyridin-3-yl)-1H-indole-3-carboxylic acid]",50 to 100
10,"COc1nc(N2C[C@H]3C[C@H]3C2)ccc1-c1cc2c(C(=O)O)c[nH]c2cc1Cl [Example 14, 5-(6-(3-azabicyclo[3.1.0]hexan-3-yl)-2-methoxypyridin-3-yl)-6-chloro-1H-indole-3-carboxylic acid]",50 to 100
11,"COc1nc(N2CC3(CCS3(=O)=O)C2)ccc1-c1cc2c(C(=O)O)c[nH]c2cc1Cl [Example 16, 6-chloro-5-(6-(1,1-dioxido-1-thia-6-azaspiro[3.3]heptan-6-yl)-2-methoxypyridin-3-yl)-1H-indole-3-carboxylic acid]",≤ 50
12,"COc1nc(N2CCC3(CCOCC3)C2)ccc1-c1cc2c(C(=O)O)c[nH]c2cc1Cl [Example 35, 6-chloro-5-(2-methoxy-6-[8-oxa-2-azaspiro[4.5]decan-2-yl]pyridin-3-yl)-1H-indole-3-carboxylic acid]",100 to 250
13,"COc1nc(N2CC3(CCOCC3)C2)ccc1-c1cc2c(C(=O)O)c[nH]c2cc1Cl [Example 36, 6-chloro-5-(2-methoxy-6-(7-oxa-2-azaspiro[3.5]nonan-2-yl)pyridin-3-yl)-1H-indole-3-carboxylic acid]",100 to 250
